Here are results for eight compounds from US4192944A, “Optionally substituted 4-oxo-4H-pyrido[1,2-a]pyrimidine-3-N-(1H-tetrazol-4-yl)carboxamides and their use as antiallergy agents” (priority 1978, dated 1980).

The subject of series [1] is reagin-mediated Passive Cutaneous Anaphylaxis (PCA). Description: reagin-mediated rat Passive Cutaneous Anaphylaxis (PCA) screening test. In kind it is in vivo. The text has this: The reagin-mediated rat Passive Cutaneous Anaphylaxis (PCA) screening test used to evaluate the present compounds is generally regarded as one of the best animal models for use in predicting the antiallergy activity of test compounds in man. This screen provides a measure of the effectiveness of test compounds in either inhibiting the release or antagonizing the action of mediators arising from the interaction of reaginic antibodies with specific antigen, mediators which are causative factors in allergic disorders. The details of the test are fully described in U.S. Pat. No. 4,031,093.
The test compounds were solubilized in aqueous sodium bicarbonate and administered intravenously (i.v.) or per os (p.o.) either one or ten minutes, respectively, prior to antigen challenge. Disodium cromoglycate (DSCG), solubilized in saline, was administered i.v. at the time of challenge and p.o 30 minutes prior to challenge.

The subject of series [2] is release of mediators, e.g. histamine and SRS-A. The following applies: administered to asthmatic patients prior to inhalation of specific antigens; cited from earlier work.
For series [3] the following is noted: must be administered by inhalation; cited from earlier work.
The conditions of series [4]: cited from earlier work.
[5] abbreviates: po, in aqueous sodium bicarbonate, ten minutes prior to antigen challenge, read-out: ID50 p.o. (dose of compound that inhibits 50% of the response).

Read-outs that look alike come from different tables or passages of the source.

Consider `O=C(O)c1cc(=O)c2c(OCC(O)COc3cccc4oc(C(=O)O)cc(=O)c34)cccc2o1` [DSCG, Disodium cromoglycate], for which the ED50 in series [1] (iv, DSCG, i.v., in saline, at the time of challenge, read-out: ID50 i.v. (dose of compound that inhibits 50% of the response)) is 0.6 mg/kg; in series [1] (po, DSCG, p.o., in saline, 30 minutes prior to challenge, read-out: ID50 p.o. (dose of compound that inhibits 50% of the response)), more than 30 mg/kg. Further, the “inhibition of release of mediators (histamine, SRS-A)” value in series [2] was “inhibits the release of mediators”. Further, in series [3], the oral absorption result was “not orally absorbed”. Further, the side effects result in series [4] (in vivo) is on record as “without cardiovascular side effects”.

For the compound `O=C(Nc1nnn[nH]1)c1cnc2ccccn2c1=O` [Example 1, 4-Oxo-4H-pyrido[1,2-a]pyrimidine-3-N-(1H-tetrazol-5-yl)carboxamide], the ED50 in series [1] (setting [5]) is 0.2 mg/kg.

As to `Cc1cccn2c(=O)c(C(=O)Nc3nnn[nH]3)cnc12` [Example 2, 9-Methyl-4-oxo-4H-pyrido[1,2-a]pyrimidine-3-N-(1H-tetrazol-5-yl)carboxamide], the ED50 in series [1] (iv, in aqueous sodium bicarbonate, one minute prior to antigen challenge, read-out: ID50 i.v. (dose of compound that inhibits 50% of the response)) stood at 0.04 mg/kg; in series [1] (setting [5]), 0.1 mg/kg.

Regarding `CCc1cccn2c(=O)c(C(=O)Nc3nnn[nH]3)cnc12` [Example 3, 9-Ethyl-4-oxo-4H-pyrido[1,2-a]pyrimidine-3-N-(1H-tetrazol-5-yl)carboxamide], in series [1] (setting [5]), the ED50 amounted to 0.1 mg/kg.

With `CN1[C@@H]2CC[C@H]1C[C@@H](OC(=O)C(CO)c1ccccc1)C2` (stereo partly shown) [atropine], in series [4] (treatment of bronchial asthma), the side effects entry is “cardiac stimulation and gastrointestinal distress”.

Turning to `CNC[C@H](O)c1ccc(O)c(O)c1` [epinephrine], the side effects entry in series [4] (treatment of bronchial asthma) is “cardiac stimulation and gastrointestinal distress”.

In the case of `CC(C)NCC(O)c1ccc(O)c(O)c1` (stereo not shown) [isoproterenol], the side effects entry in series [4] (treatment of bronchial asthma) was “cardiac stimulation and gastrointestinal distress”.

With `Cn1c(=O)c2[nH]cnc2n(C)c1=O` [theophylline], the side effects entry in series [4] (in vivo) was “cardiac stimulation and gastrointestinal distress”.
